The text below walks through data of patent US20220409581A1, “METHODS AND COMPOSITIONS FOR TREATMENT OF SOLID TUMORS USING F16 ISOINDOLE SMALL MOLECULES” (Nova Southeastern University, priority 2019, published 2022).

“Also recorded” adds a separate entry of the source.

The test system of series [1] is U87MG cells. In words: Trans-well migration assay. In kind it is cell-based, human. The following applies: 24 h; F16 20 μM, TMZ 400 μM. On the procedure: The migration ability of U87MG cell was determined using both scratch and trans-well assays. For the scratch assay, monolayer of U87MG cells was grown on 6-well plates close to 80% confluency. Using a sterile 200 μL tip, a single straight line scratch was made in each well. The wells were washed with phosphate-buffered saline (PBS) and refilled with growth medium containing various concentrations of F16 (0.1-20 μM) and TMZ (10-400 μM). The images were captured using Leica microscope at 12 h and 24 h post-scratch. For the trans-well migration assay, 6.5 mm trans-well plates polycarbonate membrane inserts (Corning, N.Y., USA) with 8 μm pore size were used. After an initial equilibrium period, 5×10^4 cells suspended in 100 μL basal medium without FBS were added to the upper compartment of the trans-well inserts and exposed to different concentrations of F16 (0.1-20 μM) and TMZ (10-400 μM). The lower chamber was filled with 600 μL of EMEM medium supplemented with 10% fetal bovine serum. Then, trans-well plates were incubated at 37° C. under 5% CO2 for 24 h to allow for the migration of U87MG cells across the porous membrane. […] Five different fields per well were captured with a Leica microscope (DMI 3000 B; IL, USA) using 10× magnification, and the number of cells that penetrated the membrane was counted using ImageJ software (NIH Image, Bethesda, Md., USA).

Series [2] concerns U87MG-luc intracranial xenograft. In words: Intracranial glioblastoma xenograft model with bioluminescence imaging.
Experimental: For tolerability study, 8-10 weeks old male BALB/c mice weighing approximately 25 g were used (Charles Rivers, US). For intracranial study, 8-10 weeks old female athymic nude (Nu/Nu) mice weighing approximately 25 g were used (Taconic Biosciences, US). All animals were housed in pathogen-free ventilated cages under environmentally controlled conditions of humidity and temperature (22° C.; 12:12 h light-dark cycle) with free access to pathogen-free food and water.
F16 (100 mg/kg) was dissolved in a 10% DMSO+90% KolliphorEL (KP). TMZ (50 mg/kg) was dissolved in 10% DMSO+90% phosphate-buffered saline (PBS). All drugs were prepared fresh before the scheduled injection [21]. The total volume of injection was 100 μL/mouse for all experiments which was administered intraperitoneally.
For intracranial study, the glioblastoma xenograft model was developed using athymic nude (Nu/Nu) mice. Briefly, mice were placed under general anesthesia (intraperitoneal injection of 100 mg/kg Ketamine and 10 mg/kg Xylazine) and were positioned in the stereotaxic device. A median incision of ˜1 cm was made, and a burr hole was drilled into the right striatum of the skull (1.0 mm forward and 2.0 mm lateral to the bregma). Subsequently, U87MG cells expressing the luc reporter gene (2×10^5 cells in 3 μL PBS) was injected using a 10-μl Hamilton syringe at the rate of 1 μL/min at a depth of 3 mm. Once injection was completed, the needle was kept in place for 2 minutes and then slowly removed, and the hole was sealed with a sterile bone wax. The incision was closed, and triple antibiotic ointment was applied. One week after tumor cell transplantation, mice were divided randomly into five groups (n=5 in each group): 1) control treated with DMSO in PBS, 2) control treated with DMSO in KP, 3) treated with F16 (100 mg/kg), 4) treated with temozolomide (50 mg/kg) and 5) treated with F16 (100 mg/kg) and 3 h later treated with temozolomide (50 mg/kg). One more group with no tumor implant was added to the study as a negative control (n=5). The experimental mice were treated twice per week for 3 weeks.
Bioluminescence imaging (BLI) was used to assess and confirm tumor growth in intracranial xenograft. BLI was carried out in vivo using the Bruker Xtreme which is a sensitive optical X-ray machine designed for preclinical in vivo study based on BLI concept. Briefly, mice were injected intraperitoneally with D-luciferin (Sigma) dissolved in saline at a dose of 150 mg/kg body weight. Immediately after the injection, mice were anesthetized by isoflurane and series of bioluminescent images was acquired with 3-minutes acquisition intervals for approximately 20 minutes, by which time, the luciferin had been washed out. The image with the peak BLI intensity was used for quantification in units of photon counts.
Series [3] deals with U87MG cells. Kind of series: Trypan blue dye exclusion method (TBDE). In kind it is cell-based, human. The following applies: F16 100 μM, TMZ 1000 μM. As for the experimental part: (§1) The cell viability was assessed using a 3-(4,5-dimethylthiazol-2-yl)-2, 5-diphenyltetrazolium bromide (MTT) assay (Sigma-Aldrich, St. Louis, Mo., USA), and trypan blue dye exclusion method (TBDE). For the MTT assay, U87MG cells were cultured in a 96 well-plate at a density of 5×10^3 per well and incubated at 37° C. under 5% CO2 for 24 h. Then, the cells were treated with different concentrations of F16 (0.1-100 μM) and TMZ (0.1-500 μM) for 24 h. At the end of treatment, the old medium was aspirated, and 10 μL of MTT (0.5 mg/mL in PBS) was added to each well and the cells were incubated at 37° C. for an additional 3 h. Finally, the MTT solution was removed, and 100 μL of dimethyl sulfoxide (DMSO) was added to each well. The plate was gently rotated on an orbital shaker for 10 min to completely dissolve the precipitation and the absorbance was measured at 570 nm using Microplate Reader (VersaMax, Molecular Devices, Sunnyvale, Calif., USA). For the TBDE method, U87MG cells were cultured in a 24 well-plate at a density of 5×10^4 per well and incubated at 37° C. under 5% CO2 for 48 h. Then, the cells were treated with different concentrations of F16 (0.1-100 μM) and TMZ (10-1000 μM). After 24, 48, and 72 h of treatments, an aliquot (50 μL) of the cell suspension from each treatment was mixed with 1:1 (v/v) volume of 0.4% trypan blue. The viable cells were counted with a Bio-Rad TC20™ Automated Cell Counter (Hercules, Calif., USA)

Series [4] can be described thus: Tolerability / toxicity study. The following applies: i.p. twice a week for 4 weeks.
Experimental: For tolerability study, 8-10 weeks old male BALB/c mice weighing approximately 25 g were used (Charles Rivers, US). […] All animals were housed in pathogen-free ventilated cages under environmentally controlled conditions of humidity and temperature (22° C.; 12:12 h light-dark cycle) with free access to pathogen-free food and water. All animal care and experiments were performed in accordance with the guidelines and approval of the Institutional Animal Care and Use Committee (IACUC) of Nova Southeastern University (NSU), Ft. Lauderdale, Fla.
TMZ (50 mg/kg) was dissolved in 10% DMSO+90% phosphate-buffered saline (PBS). All drugs were prepared fresh before the scheduled injection [21]. The total volume of injection was 100 μL/mouse for all experiments which was administered intraperitoneally.
For tolerability studies, BALB/c mice were randomly assigned to 4 different treatment groups (FIG. 15: Table 1). At the end of the treatment period, blood samples from all the mice were collected and sent to the Department of Comparative Pathology at the University of Miami (City of Miami, Fla.) to analyze the hematological and biochemical parameters.
Mice injected with KP were used as controls. All drugs were administered as i.p. injections twice a week for 4 weeks. Independent toxicity evaluations, serum biochemistry, post-mortem gross examination, and histopathological examination of major organs were performed at Comparative Pathology Department at the University of Miami, Fla.
The conditions of series [5]: rats and monkeys; cited from earlier work.
Series [6] has as its system Glioblastoma multiforme (GBM). The following applies: human, in vivo; cited from earlier work.
Series [7] concerns U87MG cells. In words: MTT cytotoxicity assay. The following applies: Homo sapiens, U-87 MG, 24 h, read-out: IC50 (50% reduction of U87MG cell viability). In kind it is cell-based. As for the experimental part: as §1, with “After 24, 48, and 72 h of treatments, an aliquot (50 μL) of the cell suspension from each treatment was mixed with 1:1 (v/v) volume of 0.4% trypan blue.” left out

For series [8], the system named is U87MG derived xenograft tumor. In kind it is in vivo. As for the experimental part:
Lauderdale, Fla. Animals were subcutaneously injected into the right flank of each mouse, with 4×10^6 of U87MG glioblastoma cancer cells suspended in 100 μL of PBS mixed with Matrigel (BD Biosciences). […] The experimental mice were treated once in every 2 days for the period of 16 days. At the end of the treatment, the tumors were isolated and then the tumor length (L) and width (W) were measured to calculate the tumor volume (TV) according to the formula: TV=1/2×(L×W^2). To determine the tumor inhibitory effects of F16 and TMZ treatments, the inhibition ratio (IR) was calculated using the formula: […]
At the end of the treatment, all the animals in the control and experimental groups were sacrificed and tumors were excised and weighed.

For series [9], the system named is recurrent GBM. The following applies: cited from earlier work.

Take `Cn1nnc2c(C(N)=O)ncn2c1=O` [TMZ, Temozolomide, reference compound]: the “U87MG cells trapped in the upper compartment as compared to untreated cells” value in series [1] is listed as “About 80%”. Besides, in [2] (compared to mice treated with vehicles (PBS/KP)), the body weight result is “No significant change”. The same molecule showed a tumor inhibition in series [2] (intracranial xenograft model) of 99%. In addition, in [2] (mouse, in vivo), the “condition of excised brains” value was “fragile and damaged”; the “mice that lived until day 50 post implantation” value amounted to 60%. The median survival in series [2] (vehicles-PBS 34 days, vehicles-KP 36 days) came out at 47 days. For the same molecule, the “maximum percentage of U87MG cells death” value in series [3] (24 h) came out at 68%. Also, the “maximum percentage of U87MG cells death” value in [3] (48 h) stood at 95%. Further, the “maximum percentage of U87MG cells death” value in [3] (72 h) is on record as 82%. Besides, in series [4], the “ALT level (liver function)” value is listed as “Significant elevation; also recorded: significantly elevating”, the “BUN levels (kidney function)” value is on record as “No significant changes”, the RBC entry is recorded as “slight increase” and the WBC counts result is given as “significant increase”. For the same molecule, in series [4], the hematocrit result is recorded as “slight increase”. Besides, in series [5], the “levels of TMZ in the brain as % of the plasma concentration” value is listed as 30-40%. Moreover, the “TMZ treated patients who develop significant toxicity” value in series [6] was 15-20%. For the same molecule, the IC50 – broadly, the concentration that gives 50% inhibition – in [7] was 430 µM. In series [8] (i.p., once every 2 days for 16 days, F16 100 mg/kg, TMZ 50 mg/kg, combination of both), the “suppression of tumor growth” value is 53%. The “signs of toxicity / tolerability” value in series [8] (mouse, in vivo) is given as “symptoms of toxicity”.

With Bevacizumab [BVZ], in series [9] (patients with (recurrent) GBM), the “overall survival (OS)” value is given as “no improvement; also recorded: failed to improve”. The “progression free survival (PFS)” value in [9] (recurrent GBM) was “did improve”.
